Experimental data taken from US6815439B2, “Substituted aza-oxindole derivatives” (SmithKline Beecham Corporation, priority 1999, dated 2004).
pIC50: −log10 of the molar value.

Legend:
Type in all cases: biochemical
VEGFR-2 = target: T1, VEGFR-2 (Homo sapiens, UniProt P35968); assay: VEGFR-2 kinase assay; settings: kinase inhibition, Table 3; read-out: VEGFR2 (IC50)
T1 construct: The kinase domain of the enzyme was purified to homogeneity from a baculovirus expression system; made in house
Experimental: The peptide substrate used in the VEGFR-2 assay was biotin-aminohexyl-[…]-NH2. The kinase domain of the enzyme was purified to homogeneity from a baculovirus expression system. The enzyme was preactivated on ice for 15 min in the presence of 100 μM ATP and 20 mM MgCl2, and stored at −80° C. until needed for assay. The activated enzyme was diluted to 0.4 nM into a 60 μl reaction containing 100 mM HEPES, pH 7.5, 5 μM ATP, 10 mM MgCl2, 5 μM peptide, 0.1 mM DTT, 0.05 mg/ml BSA, and an inhibitor at varying concentrations. The controls were reactions in the presence (negative controls) or absence (positive controls) of 50 mM EDTA. Reactions were incubated for 30 min at room temperature, and then quenched by the addition of EDTA to 60 mM in 210 μl. The quenched samples (190 μl) were transferred to a neutravidin-coated plate (Pierce) and incubated at room temperature for 40 min to allow biotinylated peptide to bind to the neutravidin. The unbound components of the reaction were removed by washing with a plate washer, then 200 μl HRP-PY20 anti-phosphotyrosine antibody conjugate was added to each well. After incubation for 40 min, the plate was washed to remove any unbound anitbody. A HRP substrate, K-blue (Neogen) was added and the reaction was quenched with Red Stop (Neogen) after 20 min. The absorbance of the wells was read at A650 in a plate reader. IC50 values were obtained by fitting raw data to A650=VMAX*(1−[I]/IC50+[I])))+b, where b is background.

CDK2 = CDK2 (Homo sapiens, UniProt P24941); assay: CDK2 substrate phosphorylation assay; settings: kinase inhibition, Table 3
Experimental: Cyclin dependent protein kinase assays utilized the peptides Biotin-aminohexyl-[…] and Biotin-aminohexyl-[…]-NH2 as phosphoryl group acceptors. CDK2 was expressed utilizing a baculovirus expression system and was partially purified to comprise 20-80% of total protein, with no detectable competing reactions present. Typically, assays were performed by incubating enzyme (0.2-10 nM), with and without inhibitor, one of the two peptide substrates ([…]), [γ-^32P]ATP ([…]), and 10-20 mM Mg^2+ for periods of time generally within the range 10-120 min. Reactions were terminated with 0.2-2 volumes of either 20% acetic acid or 50-100 mM EDTA buffered to pH 7 (substrate consumption <20%). The buffer employed in enzyme assays was either 30 mM HEPES 7.4 containing 0.15 M NaCl and 5% DMSO, the buffer 50 mM MOPS 7.0 containing 0.15 M NaCl and 5% DMSO, or the buffer 100 mM HEPES pH 7.5 containing 0.1 mg/mL BSA and 5% DMSO. Inhibitors were diluted in 100% DMSO prior to addition into the assay. Detection of peptide phosphorylation was accomplished by scintillation counting following either collection of peptide onto phosphocellulose filters (for reactions stopped with acetic acid), collection of peptide in wells of 96 well plates coated with Streptavidin (Pierce) (reactions were stopped with EDTA), or addition of Avidin coated Scintillant impregnated beads (Scintillation Proximity Assays from Amersham; reactions were stopped with EDTA).

c-fms = target: T2, c-fms (Homo sapiens, UniProt P07333); assay: c-fms protein kinase assay; settings: kinase inhibition, Table 3
T2 construct: The c-fms intracellular domain was expressed from a baculovirus expression system; GST (N); made in house
T2 sequence (P07333 539-972 limits assumed): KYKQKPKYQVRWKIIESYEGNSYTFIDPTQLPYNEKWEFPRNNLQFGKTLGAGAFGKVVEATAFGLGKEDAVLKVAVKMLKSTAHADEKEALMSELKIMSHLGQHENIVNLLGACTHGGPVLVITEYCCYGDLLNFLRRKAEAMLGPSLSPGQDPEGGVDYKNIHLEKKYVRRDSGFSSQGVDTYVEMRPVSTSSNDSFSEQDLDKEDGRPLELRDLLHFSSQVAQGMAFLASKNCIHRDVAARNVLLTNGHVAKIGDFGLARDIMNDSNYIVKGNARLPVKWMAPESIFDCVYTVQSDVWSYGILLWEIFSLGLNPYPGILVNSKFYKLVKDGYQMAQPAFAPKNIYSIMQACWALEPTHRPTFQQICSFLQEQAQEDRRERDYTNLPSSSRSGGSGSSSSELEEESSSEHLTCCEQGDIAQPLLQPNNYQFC
Experimental: c-fms protein kinase assays utilized the peptide substrate, biotin-[…]-NH2 as the phosphoryl group acceptor. The c-fms intracellular domain was expressed from a baculovirus expression system, as an amino-terminal GST fusion protein, and purified to homogeneity using Glutathione agarose from Sigma Chemical Co. Maximum activation of the enzyme was achieved by preactivation at room temperature for 120 min in the presence of 100 μM ATP and 15 mM MgCl2, This enzyme stock was diluted to 150 nM prior to using in the assay. Typically assays were performed in white, opaque, 96-well plates in a 45 ul assay volume including 15 ul 6% DMSO, with or without compounds, 15 ul of the preactivated, diluted enzyme, and 15 ul of a substrate mixture. Reactions contained 50 mM HEPES, pH 7.5, 1.7 μM ATP, 15 mM MgCl2, 3 μM peptide, 2.5 mM DTT, 50 mM NaCl and 0.15 uCi/assay [□□^32P]ATP. The controls were reactions in the presence (negative controls) or absence (positive controls) of 50 mM EDTA. Reactions were allowed to proceed for 90 min at room temperature. The reaction products were quantified using Scintillation Proximity technolgy. The reactions were quenched by the addition of 200 ul of a solution containing 0.3 mg streptavidin SPA beads from Amersham, 50 mM EDTA, 0.1% TX-100, 50 uM ATP, in PBS, pH7.2 (phosphate buffered solution). Plates were sealed and counted in a Packard Topcount scintillation counter. IC50 values were obtained by fitting raw data to the equation y=Vmax*(1−(x/(k+x))).

T1 sequence (P35968 834-1162 limits assumed, species assumed): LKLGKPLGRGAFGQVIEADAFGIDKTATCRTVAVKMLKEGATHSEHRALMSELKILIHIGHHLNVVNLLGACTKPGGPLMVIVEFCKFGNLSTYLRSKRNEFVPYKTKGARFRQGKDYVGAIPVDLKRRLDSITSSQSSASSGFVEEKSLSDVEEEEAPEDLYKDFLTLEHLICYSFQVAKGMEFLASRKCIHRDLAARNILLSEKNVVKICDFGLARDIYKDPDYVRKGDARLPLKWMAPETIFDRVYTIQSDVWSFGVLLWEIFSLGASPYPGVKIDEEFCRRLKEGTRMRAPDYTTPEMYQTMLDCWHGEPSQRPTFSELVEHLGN

| SMILES | pIC50 (VEGFR-2) | pIC50 (CDK2) | pIC50 (c-fms) |
| --- | --- | --- | --- |
| NS(=O)(=O)c1ccc(NC=C2C(=O)Nc3ccncc32)cc1 [Example 1, 4-{[(2-Oxo-1,2-dihydro-3H-pyrrolo[3,2-c]pyridin-3-ylidene)methyl]amino}benzenesulfonamide] | 5.00 to 6.00 | 7.00 to 8.00 |  |
| NS(=O)(=O)c1ccc(NC=C2C(=O)Nc3ncc(-c4ccco4)cc32)cc1 [Example 11, 4-({[5-(2-Furyl)-2-oxo-1,2-dihydro-3H-pyrrolo[2,3-b]pyridin-3-ylidene]methyl}amino)benzenesulfonamide] | 5.00 to 6.00 | 7.00 to 8.00 | 6.00 to 7.00 |
| O=C1Nc2ncc(-c3ccsc3)cc2C1=CNc1ccc2ncccc2c1 [Example 16, 3-[(6-Quinolinylamino)methylidene]-5-(3-thienyl)-1,3-dihydro-2H-pyrrolo[2,3-b]pyridin-2-one] | 5.00 to 6.00 |  | 6.00 to 7.00 |
| O=C1Nc2nc(Cl)ccc2C1=CNc1ccc2ncccc2c1 [Example 22, 6-Chloro-3-[(6-quinolinylamino)methylidene]-1,3-dihydro-2H-pyrrolo[2,3-b]pyridin-2-one] | 5.00 to 6.00 |  | 5.00 to 6.00 |
| O=C1Nc2ncc(-c3ccco3)cc2C1=CNc1ccc2ncccc2c1 [Example 13, 5-(2-Furyl)-3-[(6-quinolinylamino)methylidene]-1,3-dihydro-2H-pyrrolo[2,3-b]pyridin-2-one] | 5.00 to 6.00 |  | 5.00 to 6.00 |
| O=C1Nc2ncc(-c3ccccc3)cc2C1=CNc1ccc2cn[nH]c2c1 [Example 9, 3-[(1H-Indazol-6-ylamino)methylidene]-5-phenyl-1H-pyrrolo[2,3-b]pyridin-2-one] |  |  | 5.00 to 6.00 |
| NS(=O)(=O)c1ccc(NC=C2C(=O)Nc3ncc(-c4ccccc4)cc32)cc1 [Example 8, 4-{[(2-Oxo-5-phenyl-1,2-dihydro-3H-pyrrolo[2,3-b]pyridin-3-ylidene)methyl]amino}benzenesulfonamide] |  | 5.00 to 6.00 |  |
| NS(=O)(=O)c1ccc(NC=C2C(=O)Nc3ncccc32)cc1 [Example 5, 4-{[(2-Oxo-1,2-dihydro-3H-pyrrolo[2,3-b]pyridin-3-ylidene)methyl]amino}benzenesulfonamide] | 5.00 to 6.00 | 6.00 to 7.00 |  |
| O=C1Nc2ncccc2C1=CNc1ccc2ncccc2c1 [Example 7, 3-[(6-Quinolinylamino)methylidene]-1,3-dihydro-2H-pyrrolo[2,3-b]pyridin-2-one] | 5.00 to 6.00 |  |  |
| O=C1Nc2cccnc2C1=CNc1ccc2ncccc2c1 [Example 4, 3-[(6-Quinolinylamino)methylidene]-1,3-dihydro-2H-pyrrolo[3,2-b]pyridin-2-one] | 5.00 to 6.00 |  |  |
| O=C1Nc2cccnc2C1=CNc1ccc2cn[nH]c2c1 [Example 3, 3-[(1H-Indazol-6-ylamino)methylidene]-1H-pyrrolo[3,2-b]pyridin-2-one] | 5.00 to 6.00 |  |  |
| O=C1Nc2ncc(-c3ccsc3)cc2C1=CNc1ccc2cn[nH]c2c1 [Example 15, 3-[(1H-Indazol-6-ylamino)methylidene]-5-(3-thienyl)-1,3-dihydro-2H-pyrrolo[2,3-b]pyridin-2-one] | 5.00 to 6.00 | 6.00 to 7.00 | 5.00 to 6.00 |
| O=C1Nc2ncc(-c3ccccc3)cc2C1=CNc1ccc2ncccc2c1 [Example 10, 5-Phenyl-3-[(6-quinolinylamino)methylidene]-1,3-dihydro-2H-pyrrolo[2,3-b]pyridin-2-one] |  |  | 5.00 to 6.00 |
| NS(=O)(=O)c1ccc(NC=C2C(=O)Nc3cnccc32)cc1 [Example 2, 4-{[(2-Oxo-1,2-dihydro-3H-pyrrolo[2,3-c]pyridin-3-ylidene)methyl]amino}benzenesulfonamide] |  | 7.00 to 8.00 |  |
| NS(=O)(=O)c1ccc(NC=C2C(=O)Nc3nc(Cl)ccc32)cc1 [Example 20, 4-{[(6-Chloro-2-oxo-1,2-dihydro-3H-pyrrolo[2,3-b]pyridin-3-ylidene)methyl]amino}benzenesulfonamide] | 6.00 to 7.00 | 6.00 to 7.00 |  |

Second part, the molecule after the results:

| pIC50 (VEGFR-2) | pIC50 (CDK2) | pIC50 (c-fms) | SMILES |
| --- | --- | --- | --- |
| 6.00 to 7.00 | 5.00 to 6.00 | 5.00 to 6.00 | O=C1Nc2ncc(-c3ccco3)cc2C1=CNc1ccc2cn[nH]c2c1 [Example 12, 5-(2-Furyl)-3-[(1H-indazol-6-ylamino)methylidene]-1H-pyrrolo[2,3-b]pyridin-2-one] |
| 6.00 to 7.00 |  | 5.00 to 6.00 | O=C1Nc2ncccc2C1=CNc1ccc2cn[nH]c2c1 [Example 6, 3-[(1H-Indazol-6-ylamino)methylidene]-1H-pyrrolo[2,3-b]pyridin-2-one] |
| 6.00 to 7.00 | 7.00 to 8.00 | 5.00 to 6.00 | NS(=O)(=O)c1ccc(NC=C2C(=O)Nc3ncc(Br)cc32)cc1 [Example 17, 4-{[(5-Bromo-2-oxo-1,2-dihydro-3H-pyrrolo[2,3-b]pyridin-3-ylidene)methyl]amino}benzenesulfonamide] |
| 6.00 to 7.00 | 6.00 to 7.00 | 6.00 to 7.00 | NS(=O)(=O)c1ccc(NC=C2C(=O)Nc3ncc(-c4ccsc4)cc32)cc1 [Example 14, 4-({[2-Oxo-5-(3-thienyl)-1,2-dihydro-3H-pyrrolo[2,3-b]pyridin-3-ylidene]methyl}amino)benzenesulfonamide] |
| 6.00 to 7.00 | 6.00 to 7.00 | 5.00 to 6.00 | O=C1Nc2nc(Cl)ccc2C1=CNc1ccc2cn[nH]c2c1 [Example 21, 6-Chloro-3-[(1H-indazol-6-ylamino)methylidene]-1,3-dihydro-2H-pyrrolo[2,3-b]pyridin-2-one] |
| 6.00 to 7.00 | 7.00 to 8.00 | 5.00 to 6.00 | O=C1Nc2ncc(Br)cc2C1=CNc1ccc2cn[nH]c2c1 [Example 18, 5-Bromo-3-[(1H-indazol-6-ylamino)methylidene]-1,3-dihydro-2H-pyrrolo[2,3-b]pyridin-2-one] |
| 6.00 to 7.00 | 6.00 to 7.00 |  | CCOC(=O)c1cnc2c(c1)C(=CNc1ccc3ncccc3c1)C(=O)N2 [Example 25, Ethyl 2-oxo-3-[(6-quinolinylamino)methylidene]-2,3-dihydro-1H-pyrrolo[2,3-b]pyridine-5-carboxylate] |
| 6.00 to 7.00 | 7.00 to 8.00 | 5.00 to 6.00 | CCOC(=O)c1cnc2c(c1)C(=CNc1ccc(S(N)(=O)=O)cc1)C(=O)N2 [Example 23, Ethyl 3-{[4-(aminosulfonyl)anilino]methylidene}-2-oxo-1,2-dihydro-3H-pyrrolo[2,3-b]pyridine-5-carboxylate] |
